Reference: US20240190880A1 (THE REGENTS OF THE UNIVERSITY OF MICHIGAN, priority 2021, published 2024)

The compounds below were run against T1, ER (Homo sapiens, UniProt P03372) (assay: ER degradation activity, in-cell western blot analysis in T47D cells). Conditions: compounds 16 hours, Table A does not say whether T47D or MCF7, read-out: Potency (DC50).
T1 construct: host or cells: T47D and MCF7 human breast cancer cells
T1 sequence (P03372 1-595): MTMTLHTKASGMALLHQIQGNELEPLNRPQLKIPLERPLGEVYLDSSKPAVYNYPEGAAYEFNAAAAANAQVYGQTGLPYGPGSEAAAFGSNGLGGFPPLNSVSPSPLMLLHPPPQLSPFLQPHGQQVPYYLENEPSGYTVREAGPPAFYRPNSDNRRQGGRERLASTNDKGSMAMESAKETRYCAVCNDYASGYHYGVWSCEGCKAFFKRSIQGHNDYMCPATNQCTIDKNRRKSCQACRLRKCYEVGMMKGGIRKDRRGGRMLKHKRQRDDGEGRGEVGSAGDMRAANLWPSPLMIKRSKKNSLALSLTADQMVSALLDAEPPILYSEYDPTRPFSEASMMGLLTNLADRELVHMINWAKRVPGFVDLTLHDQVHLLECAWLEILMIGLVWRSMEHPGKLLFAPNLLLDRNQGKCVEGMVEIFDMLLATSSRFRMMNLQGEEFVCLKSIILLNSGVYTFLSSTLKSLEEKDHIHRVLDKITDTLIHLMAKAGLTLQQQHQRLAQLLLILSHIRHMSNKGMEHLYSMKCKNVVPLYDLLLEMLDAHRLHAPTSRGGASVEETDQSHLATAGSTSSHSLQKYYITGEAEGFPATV
Assay type: cell-based
Procedure, shortened: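 Read-out is near-infrared fluorescence from an in-cell western, expressed as ER percentage relative to untreated and DMSO controls taken as 100%. T47D breast cancer cells received compound for 16 h in 0.5% DMSO.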

Row | Compound | DC50 [nM]
1 | C[C@@H]1Cc2c([nH]c3ccccc23)[C@@H](c2cnc(N3CC4(CCC(CN5Cc6cc7c(cc6C5)C(=O)N(C5CCC(=O)NC5=O)C7=O)CC4)C3)nc2)N1CC(F)F (stereo partly drawn) [E 472, 6-((2-(5-((1R,3R)-2-(2,2-difluoroethyl)-3-methyl-2,3,4,9-tetrahydro-1H-pyrido[3,4-b]indol-1-yl)pyrimidin-2-yl)-2-azaspiro[3.5]nonan-7-yl)methyl)-2-(2,6-dioxopiperidin-3-yl)-6,7-dihydropyrrolo[3,4-f]isoindole-1,3(2H,5H)-dione] | 10 to 100
2 | C[C@@H]1Cc2c([nH]c3ccccc23)[C@@H](c2cnc(N3CCC4(CC3)CC(CN3Cc5cc6c(cc5C3)C(=O)N(C3CCC(=O)NC3=O)C6=O)C4)nc2)N1CC(C)(C)F (stereo partly drawn) [E 473, 2-(2,6-dioxopiperidin-3-yl)-6-((7-(5-((1R,3R)-2-(2-fluoro-2-methylpropyl)-3-methyl-2,3,4,9-tetrahydro-1H-pyrido[3,4-b]indol-1-yl)pyrimidin-2-yl)-7-azaspiro[3.5]nonan-2-yl)methyl)-6,7-dihydropyrrolo[3,4-f]isoindole-1,3(2H,5H)-dione] | 10 to 100
3 | C[C@@H]1Cc2c([nH]c3ccccc23)[C@@H](c2cnc(N3CCC4(CC3)CC(CN3Cc5cc6c(cc5C3)C(=O)N(C3CCC(=O)NC3=O)C6=O)C4)nc2)N1CC(F)F (stereo partly drawn) [E 474, 6-((7-(5-((1R,3R)-2-(2,2-difluoroethyl)-3-methyl-2,3,4,9-tetrahydro-1H-pyrido[3,4-b]indol-1-yl)pyrimidin-2-yl)-7-azaspiro[3.5]nonan-2-yl)methyl)-2-(2,6-dioxopiperidin-3-yl)-6,7-dihydropyrrolo[3,4-f]isoindole-1,3(2H,5H)-dione] | 10 to 100
4 | C[C@@H]1Cc2c([nH]c3ccccc23)[C@@H](c2ccc(C3CCC(C(=O)N4CCC(N5Cc6cc7c(cc6C5)C(=O)N(C5CCC(=O)NC5=O)C7=O)CC4)CC3)c(F)c2)N1CC(F)F (stereo partly drawn) [E 475, 6-(1-(4-(4-((1R,3R)-2-(2,2-difluoroethyl)-3-methyl-2,3,4,9-tetrahydro-1H-pyrido[3,4-b]indol-1-yl)-2-fluorophenyl)cyclohexane-1-carbonyl)piperidin-4-yl)-2-(2,6-dioxopiperidin-3-yl)-6,7-dihydropyrrolo[3,4-f]isoindole-1,3(2H,5H)-dione] | 10 to 100
5 | C[C@@H]1Cc2c([nH]c3ccccc23)[C@@H](c2c(F)cc(C3=CCC4(CC3)CCN(C(=O)CN3Cc5cc6c(cc5C3)C(=O)N(C3CCC(=O)NC3=O)C6=O)CC4)cc2F)N1CC(F)F (stereo partly drawn) [E 476, 6-(2-(9-(4-((1R,3R)-2-(2,2-difluoroethyl)-3-methyl-2,3,4,9-tetrahydro-1H-pyrido[3,4-b]indol-1-yl)-3,5-difluorophenyl)-3-azaspiro[5.5]undec-8-en-3-yl)-2-oxoethyl)-2-(2,6-dioxopiperidin-3-yl)-6,7-dihydropyrrolo[3,4-f]isoindole-1,3(2H,5H)-dione] | 10 to 100
6 | C[C@@H]1Cc2c([nH]c3ccccc23)[C@@H](c2ccc(C3=CCC4(CC3)CCN(C(=O)CN3Cc5cc6c(cc5C3)C(=O)N(C3CCC(=O)NC3=O)C6=O)CC4)cc2F)N1CC(F)F (stereo partly drawn) [E 477, 6-(2-(9-(4-((1R,3R)-2-(2,2-difluoroethyl)-3-methyl-2,3,4,9-tetrahydro-1H-pyrido[3,4-b]indol-1-yl)-3-fluorophenyl)-3-azaspiro[5.5]undec-8-en-3-yl)-2-oxoethyl)-2-(2,6-dioxopiperidin-3-yl)-6,7-dihydropyrrolo[3,4-f]isoindole-1,3(2H,5H)-dione] | > 100
7 | C[C@@H]1Cc2c([nH]c3ccccc23)[C@@H](c2ccc(C3=CCC4(CC3)CCN(C(=O)CN3Cc5cc6c(cc5C3)C(=O)N(C3CCC(=O)NC3=O)C6=O)CC4)cc2)N1CC(F)F (stereo partly drawn) [E 478, 6-(2-(9-(4-((1R,3R)-2-(2,2-difluoroethyl)-3-methyl-2,3,4,9-tetrahydro-1H-pyrido[3,4-b]indol-1-yl)phenyl)-3-azaspiro[5.5]undec-8-en-3-yl)-2-oxoethyl)-2-(2,6-dioxopiperidin-3-yl)-6,7-dihydropyrrolo[3,4-f]isoindole-1,3(2H,5H)-dione] | > 100
8 | C[C@@H]1Cc2c([nH]c3ccccc23)[C@@H](c2ccc(C3CCC4(CC3)CCN(C(=O)CN3Cc5cc6c(cc5C3)C(=O)N(C3CCC(=O)NC3=O)C6=O)CC4)cc2F)N1CC(F)F (stereo partly drawn) [E 479, 6-(2-(9-(4-((1R,3R)-2-(2,2-difluoroethyl)-3-methyl-2,3,4,9-tetrahydro-1H-pyrido[3,4-b]indol-1-yl)-3-fluorophenyl)-3-azaspiro[5.5]undecan-3-yl)-2-oxoethyl)-2-(2,6-dioxopiperidin-3-yl)-6,7-dihydropyrrolo[3,4-f]isoindole-1,3(2H,5H)-dione] | > 100

Other lines, results leading:

Row | DC50 [nM] | Compound
9 | 10 to 100 | C[C@@H]1Cc2c([nH]c3ccccc23)[C@@H](c2c(F)cc(C3CCC4(CC3)CCN(C(=O)CN3Cc5cc6c(cc5C3)C(=O)N(C3CCC(=O)NC3=O)C6=O)CC4)cc2F)N1CC(F)F (stereo partly drawn) [E 480, 6-(2-(9-(4-((1R,3R)-2-(2,2-difluoroethyl)-3-methyl-2,3,4,9-tetrahydro-1H-pyrido[3,4-b]indol-1-yl)-3,5-difluorophenyl)-3-azaspiro[5.5]undecan-3-yl)-2-oxoethyl)-2-(2,6-dioxopiperidin-3-yl)-6,7-dihydropyrrolo[3,4-f]isoindole-1,3(2H,5H)-dione]
10 | 10 to 100 | C[C@@H]1Cc2c([nH]c3ccccc23)[C@@H](c2ccc(C3=CCC(C(=O)N4CCC(N5Cc6cc7c(cc6C5)C(=O)N(C5CCC(=O)NC5=O)C7=O)CC4)CC3)cc2F)N1CC(C)(C)F (stereo partly drawn) [E 481, 2-(2,6-dioxopiperidin-3-yl)-6-(1-(3′-fluoro-4′-((1R,3R)-2-(2-fluoro-2-methylpropyl)-3-methyl-2,3,4,9-tetrahydro-1H-pyrido[3,4-b]indol-1-yl)-2,3,4,5-tetrahydro-[1,1′-biphenyl]-4-carbonyl)piperidin-4-yl)-6,7-dihydropyrrolo[3,4-f]isoindole-1,3(2H,5H)-dione]
11 | > 100 | C[C@@H]1Cc2c([nH]c3ccccc23)[C@@H](c2ccc(C3=CCC(C(=O)N4CCC(N5Cc6cc7c(cc6C5)C(=O)N(C5CCC(=O)NC5=O)C7=O)CC4)CC3)cc2F)N1CC(C)(F)F (stereo partly drawn) [E 482, 6-(1-(4′-((1R,3R)-2-(2,2-difluoropropyl)-3-methyl-2,3,4,9-tetrahydro-1H-pyrido[3,4-b]indol-1-yl)-3′-fluoro-2,3,4,5-tetrahydro-[1,1′-biphenyl]-4-carbonyl)piperidin-4-yl)-2-(2,6-dioxopiperidin-3-yl)-6,7-dihydropyrrolo[3,4-f]isoindole-1,3(2H,5H)-dione]
12 | > 100 | C[C@@H]1Cc2c([nH]c3ccccc23)[C@@H](c2ncc(C3=CCC(C(=O)N4CCC(N5Cc6cc7c(cc6C5)C(=O)N(C5CCC(=O)NC5=O)C7=O)CC4)CC3)cc2F)N1CC(C)(F)F (stereo partly drawn) [E 483, 6-(1-(4-(6-((1S,3R)-2-(2,2-difluoropropyl)-3-methyl-2,3,4,9-tetrahydro-1H-pyrido[3,4-b]indol-1-yl)-5-fluoropyridin-3-yl)cyclohex-3-ene-1-carbonyl)piperidin-4-yl)-2-(2,6-dioxopiperidin-3-yl)-6,7-dihydropyrrolo[3,4-f]isoindole-1,3(2H,5H)-dione]
13 | > 100 | C[C@@H]1Cc2c([nH]c3ccccc23)[C@@H](c2ncc(C3=CCC(C(=O)N4CCC(N5Cc6cc7c(cc6C5)C(=O)N(C5CCC(=O)NC5=O)C7=O)CC4)CC3)cc2F)N1CC(C)(C)F (stereo partly drawn) [E 484, 2-(2,6-dioxopiperidin-3-yl)-6-(1-(4-(5-fluoro-6-((1S,3R)-2-(2-fluoro-2-methylpropyl)-3-methyl-2,3,4,9-tetrahydro-1H-pyrido[3,4-b]indol-1-yl)pyridin-3-yl)cyclohex-3-ene-1-carbonyl)piperidin-4-yl)-6,7-dihydropyrrolo[3,4-f]isoindole-1,3(2H,5H)-dione]
14 | > 100 | C[C@@H]1Cc2c([nH]c3ccccc23)[C@@H](c2c(F)cc(C3=CCC(C(=O)N4CCC(N5Cc6cc7c(cc6C5)C(=O)N(C5CCC(=O)NC5=O)C7=O)CC4)CC3)cc2F)N1CC1(F)CC1 (stereo partly drawn) [E 485, 6-(1-(3′,5′-difluoro-4′-((1R,3R)-2-((1-fluorocyclopropyl)methyl)-3-methyl-2,3,4,9-tetrahydro-1H-pyrido[3,4-b]indol-1-yl)-2,3,4,5-tetrahydro-[1,1′-biphenyl]-4-carbonyl)piperidin-4-yl)-2-(2,6-dioxopiperidin-3-yl)-6,7-dihydropyrrolo[3,4-f]isoindole-1,3(2H,5H)-dione]
15 | > 100 | C[C@@H]1Cc2c([nH]c3ccccc23)[C@@H](c2ccc(C3=CCC(C(=O)N4CCC(N5Cc6cc7c(cc6C5)C(=O)N(C5CCC(=O)NC5=O)C7=O)CC4)CC3)cc2F)N1CC1(F)CC1 (stereo partly drawn) [E 486, 2-(2,6-dioxopiperidin-3-yl)-6-(1-(3′-fluoro-4′-((1R,3R)-2-((1-fluorocyclopropyl)methyl)-3-methyl-2,3,4,9-tetrahydro-1H-pyrido[3,4-b]indol-1-yl)-2,3,4,5-tetrahydro-[1,1′-biphenyl]-4-carbonyl)piperidin-4-yl)-6,7-dihydropyrrolo[3,4-f]isoindole-1,3(2H,5H)-dione]
